This test has as its target T1, Thioredoxin reductase (TrxR) (Rattus norvegicus, UniProt O89049).
T1 construct: gene Txnrd1
Nature of the test: DTNB reduction assay with isolated rat liver TrxR, […] nm, […] min preincubation with NADPH.

T1 sequence (O89049 whole entry): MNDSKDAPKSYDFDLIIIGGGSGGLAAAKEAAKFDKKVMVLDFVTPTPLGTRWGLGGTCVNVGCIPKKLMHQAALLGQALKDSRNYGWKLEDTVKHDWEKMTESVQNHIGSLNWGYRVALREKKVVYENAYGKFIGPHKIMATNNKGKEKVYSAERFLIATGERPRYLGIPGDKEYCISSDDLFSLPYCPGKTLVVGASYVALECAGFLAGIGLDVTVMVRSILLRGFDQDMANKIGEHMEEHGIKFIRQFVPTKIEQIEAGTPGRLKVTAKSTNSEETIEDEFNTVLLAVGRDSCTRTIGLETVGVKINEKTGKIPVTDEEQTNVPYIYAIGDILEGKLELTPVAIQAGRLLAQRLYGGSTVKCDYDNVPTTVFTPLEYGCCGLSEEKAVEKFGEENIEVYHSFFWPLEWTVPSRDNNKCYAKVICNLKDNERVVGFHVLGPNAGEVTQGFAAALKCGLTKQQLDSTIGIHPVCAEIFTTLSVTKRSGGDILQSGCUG

Compound `CC[P+](CC)(CC)[Au-][Cl]` [compound 5, Et3PAuCl] gave an IC50 of 51.1 nM. The result for `CCCCCCN(CCCCCC)C(=O)C(=O)c1c(-c2ccccc2)[n]([Au-][P+](CC)(CC)CC)c2ccccc12` [compound 1, [N,N-di-n-hexyl-2-(2-phenyl-1-indol-kN-3-yl)glyoxylamido]-AuPEt3] reads 59.2 nM.

In general, IC50 refers to the concentration at which inhibition is half-maximal. Higher therefore signals a need for much substance.

(Values after publication PMC10545567, “A complex bearing TSPO PIGA ligand coordinated to the [Au(PEt3)]^+ pharmacophore is highly cytotoxic against ovarian cancer cells” (Biometals, 2023).)
